pIC50: −log10 of the molar value.
Columns and labels:
[1] = molecular target: T1, recombinant Aurora A (Homo sapiens, UniProt O14965); experiment: Aurora A (Aurora 2) inhibition assay, Z'-Lyte kinase assay; type: biochemical; conditions: ATP 10 μM, 1 h; less than or equal to 100 nM
T1 construct: purchased Upstate, Lake Placid, N.Y
T1 sequence (O14965 1-403): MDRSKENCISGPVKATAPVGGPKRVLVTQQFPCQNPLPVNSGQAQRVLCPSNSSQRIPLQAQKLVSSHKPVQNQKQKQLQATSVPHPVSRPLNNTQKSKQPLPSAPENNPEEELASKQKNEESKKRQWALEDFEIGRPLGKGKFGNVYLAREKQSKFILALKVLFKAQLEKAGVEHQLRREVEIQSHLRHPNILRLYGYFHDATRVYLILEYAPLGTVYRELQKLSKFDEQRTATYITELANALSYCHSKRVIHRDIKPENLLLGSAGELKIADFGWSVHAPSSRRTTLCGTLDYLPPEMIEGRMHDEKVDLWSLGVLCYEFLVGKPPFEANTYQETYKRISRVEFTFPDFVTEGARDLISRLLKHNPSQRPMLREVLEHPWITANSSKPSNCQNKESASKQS
Experimental: Compounds were tested for their potency against recombinant Aurora A (Upstate, Lake Placid, N.Y.) using the PanVera Z′-Lyte kinase assay kit-Ser/Thr 1 peptide (Invitrogen, Carlsbad, Calif.). Assays were carried out in kinase assay buffer (50 mM HEPES, pH 7.5, 10 mM MgCl2, 5 mM EGTA, 0.05% Brij-35, 2 mM DTT). Test compounds were initially dissolved in DMSO at 100× the highest tested concentration, then serially diluted to 4× test concentrations in kinase assay buffer. Next, Aurora A (final concentration 200-500 ng/mL), Z′-Lyte Ser/Thr 1 peptide (final concentration 2 μM) and ATP (final concentration 10 μM) were added according to the manufacturer's instructions. Assays were carried out in half-area 96-well white polystyrene assay plates (Corning, Corning, N.Y.) in a final volume of 20 μl. The reaction was allowed to proceed for 1 h at room temperature in the dark, at which point the development reagent and stop reagent were added according to the manufacturer's instructions. Coumarin (Ex. 400 nm, Em. 465 nm) and fluorescein (Ex. 400 nm, Em. 565 nm) fluorescence values were measured on a SpectraFluor Plus plate reader (Tecan, Durham, N.C.). The emission ratio (coumarin/fluorescein) was determined and used to calculate the percent phosphorylation for each well. Wells containing substrate but no kinase and wells containing a phosphopeptide control were used to set 0% and 100% phosphorylation values, respectively. Typically 20-40% of the substrate was phosphorylated in wells without inhibitor. Dose-response curves of relative Aurora A activity vs. inhibitor concentration were plotted with Grafit (Erithacus Software, Horley, Surrey, UK).

[2] = tested on: HCT-116 cell growth; experiment: Whole cell cytotoxicity assay: Sulforhodamine B; type: cell-based; conditions: Homo sapiens, HCT116, 96 hours, SRB staining, less than or equal to 100 nM
Experimental: Human tumor-derived cell lines, HCT116 or MCF7 (ATCC) were plated in a 96 well plate in DMEM containing 10% fetal bovine serum and 2 mM L-glutamine at a density of 500 HCT116 cells or 1,000 MCF7 cells per well and incubated at 37° C., 5% CO2, for 24 hours prior to the addition of experimental compounds. Compounds were added using the dilution series indicated to duplicate plates and the cells were incubated in media plus compound for 96 hours. An additional plate was fixed in 10% TCA at the time of the addition of compound to provide a measurement of the cell population at time zero, the time of drug addition. […] The absorbance was read at 570 nm. Percentage growth was calculated using the absorbance readings from the time zero plate (Tz) and the dilution series plate […] which included a column of cells grown in media without compound as a control (C) using the formulas: […]
Three dose response parameters were calculated for each experimental agent. […] The drug concentration resulting in total growth inhibition (TGI) was calculated from Ti=Tz. […] Values are calculated for each of these three parameters if the level of activity was reached; however, if the effect was not reached or was exceeded, the value for that parameter is expressed as greater or less than the maximum or minimum concentration tested.

pIC50 [1] | Compound | pIC50 [2]
≥ 7.00 | Cc1cc(Nc2cc(N3CCC(N4CCCCC4)CC3)nc(/C=C/c3ccccc3)n2)n[nH]1 [Compound 5, (E)-6-(1,4′-bipiperidin-1′-yl)-N-(5-methyl-1H-pyrazol-3-yl)-2-styrylpyrimidin-4-amine] | ≥ 7.00
≥ 7.00 | Cc1cc(Nc2cc(N3CCN(c4ccncc4)CC3)nc(/C=C/c3ccccc3)n2)n[nH]1 [Compound 22, (E)-N-(5-methyl-1H-pyrazol-3-yl)-6-(4-(pyridin-4-yl)piperazin-1-yl)-2-styrylpyrimidin-4-amine] | ≥ 7.00
